Measurements taken from US9689040B2, “Selective inhibitors of tumor-initiating cells” (Children's Medical Center Corporation, priority 2011, dated 2017).

Assays:
BPLER cells [1] = experiment: Genome-wide siRNA lethality screen (primary screen), CellTiterGlo viability; format: cell-based, human; conditions: for Ratio: R, BPLER versus HMLER, primary screen; for MAD BPLER / Fold BPLER: siRNA pool against the gene; for MAD BPLER: MAD score of viability in BPLER cells; for Fold BPLER: fold viability in BPLER cells
BPLER cells [2] = experiment: Secondary (cherry-pick) screen with the 4 individual siRNAs of each pool; conditions: for Cherry_Score: secondary cherry-pick screen, 4 individual siRNAs of each pool
HMLER cells = experiment: Genome-wide siRNA lethality screen (primary screen), CellTiterGlo viability; format: cell-based, human; conditions: for Fold_HMLER / MAD_HMLER: primary screen, HMLER cells; for MAD_HMLER: MAD score; for MAD HMLER: MAD score of viability in HMLER cells; for Fold HMLER: fold viability in HMLER cells
[3] = validation screen with individual siRNAs of each pool
[4] = ratio of Fold_BPLER to Fold_HMLER
[5] = ratio of fold viability BPLER/HMLER
[6] = secondary screen with the 4 individual siRNAs of each pool
[7] = siRNA pool against the gene, fold viability

| Substance | Ratio (BPLER cells [1]) | Cherry Score (BPLER cells [2]; [3]) | Fold_HMLER (HMLER cells; siRNA pool) | Ratio BPLER/HMLER (BPLER cells [1]; [4]) | Ratio BPLER/HMLER (BPLER cells [1]; [5]) | MAD BPLER (BPLER cells [1]) | Fold BPLER (BPLER cells [1]) | Cherry_Score (BPLER cells [2]) | Cherry Score (BPLER cells [2]; [6]) | MAD_HMLER (HMLER cells; siRNA pool against the gene) | Fold_HMLER (HMLER cells; [7]) | MAD HMLER (HMLER cells; siRNA pool against the gene) | Fold HMLER (HMLER cells; siRNA pool against the gene) |
| --- | --- | --- | --- | --- | --- | --- | --- | --- | --- | --- | --- | --- | --- |
| NM_152374 | 0.72 | 2 | 0.97 |  |  |  |  |  |  |  |  |  |  |
| NM_152496 | 0.72 | 1 | 0.64 |  |  |  |  |  |  |  |  |  |  |
| NM_032916 | 0.70 | 2 | 0.70 |  |  |  |  |  |  |  |  |  |  |
| NOSTRIN |  |  |  | 0.67 | 0.67 | −2.06 | 0.604 | 1 | 1 | −0.69 | 0.90 | −0.69 | 0.90 |
| STIM2 |  |  |  | 0.72 | 0.72 | −2.39 | 0.597 | 2 | 2 | −0.99 | 0.83 | −0.99 | 0.83 |
| NM_032425 | 0.73 | 2 | 0.77 |  |  |  |  |  |  |  |  |  |  |
| PDE6C |  |  |  | 0.66 | 0.66 | −1.98 | 0.621 | 1 | 1 | −0.33 | 0.95 | −0.33 | 0.95 |
| NM_080730 | 0.72 | 1 | 0.99 |  |  |  |  |  |  |  |  |  |  |
| PRC1 |  |  |  | 0.68 | 0.68 | −3.08 | 0.409 | 1 | 1 | −2.40 | 0.60 | −2.40 | 0.60 |
| SCD |  |  |  | 0.74 | 0.74 | −3.24 | 0.555 | 2 | 2 | −1.58 | 0.75 | −1.58 | 0.75 |
| USP39 |  |  |  | 0.70 | 0.70 | −2.13 | 0.695 | 2 | 2 | −0.04 | 0.99 | −0.04 | 0.99 |
| XM_058073 | 0.73 | 3 | 0.75 |  |  |  |  |  |  |  |  |  |  |
| NM_052946 | 0.67 | 1 | 0.90 |  |  |  |  |  |  |  |  |  |  |
| PDCD4 |  |  |  | 0.73 | 0.73 | −2.81 | 0.462 | 1 | 1 | −2.25 | 0.63 | −2.25 | 0.63 |
| SLC24A3 |  |  |  | 0.72 | 0.72 | −2.23 | 0.637 | 1 | 1 | −0.75 | 0.88 | −0.75 | 0.88 |
| SLC47A1 |  |  |  | 0.68 | 0.68 | −1.62 | 0.613 | 2 | 2 | −0.71 | 0.90 | −0.71 | 0.90 |
| TSG101 |  |  |  | 0.66 | 0.66 | −2.45 | 0.684 | 3 | 3 | 0.23 | 1.04 | 0.23 | 1.04 |
| NM_152655 | 0.72 | 2 | 0.89 |  |  |  |  |  |  |  |  |  |  |
| TBC1D24 |  |  |  | 0.71 | 0.71 | −1.97 | 0.680 | 2 | 2 | −0.32 | 0.95 | −0.32 | 0.95 |
| NM_198080 | 0.67 | 1 | 0.85 |  |  |  |  |  |  |  |  |  |  |
| POLA1 |  |  |  | 0.74 | 0.74 | −2.01 | 0.724 | 3 | 3 | −0.17 | 0.97 | −0.17 | 0.97 |
| PCBP3 |  |  |  | 0.71 | 0.71 | −1.69 | 0.727 | 1 | 1 | 0.15 | 1.02 | 0.15 | 1.02 |
| NM_148571 | 0.73 | 1 | 0.81 |  |  |  |  |  |  |  |  |  |  |
| NM_152905 | 0.67 | 1 | 1.08 |  |  |  |  |  |  |  |  |  |  |
